Assay results from article PMC6886798, “Expression of myeloid Src-family kinases is associated with poor prognosis in AML and influences Flt3-ITD kinase inhibitor acquired resistance” (PLoS ONE, 2019).

Tests used:
Assay in all cases: KINOMEscan
Format in all cases: binding
Settings in all cases: 1.0 µM
ACVRL1 = molecular target: T1, ACVRL1 (Homo sapiens, UniProt P37023)
T1 construct: purchased Eurofins/DiscoverX KINOMEscan scanMAX
Method: (§1) Kinase retention to the immobilized ligand is then measured using quantitative real-time PCR for each kinase-specific DNA barcode.

ASK2 = molecular target: T2, ASK2 (Homo sapiens, UniProt O95382)
T2 construct: purchased Eurofins/DiscoverX KINOMEscan scanMAX
Method: as §1

BRAF(V600E) = molecular target: T3, BRAF(V600E) (Homo sapiens, UniProt P15056, V600E)
T3 construct: purchased Eurofins/DiscoverX KINOMEscan scanMAX
Method: as §1

CAMK1G = molecular target: T4, CAMK1G (Homo sapiens, UniProt Q96NX5)
T4 construct: purchased Eurofins/DiscoverX KINOMEscan scanMAX
Method: as §1

CDC2L1 = molecular target: T5, CDC2L1 (Homo sapiens, UniProt P21127)
T5 construct: purchased Eurofins/DiscoverX KINOMEscan scanMAX
Method: as §1

CDK4-cyclinD1 = molecular target: T6, CDK4-cyclinD1 (Homo sapiens, UniProt P11802)
T6 construct: purchased Eurofins/DiscoverX KINOMEscan scanMAX
Method: as §1

CDK9 = molecular target: T7, CDK9 (Homo sapiens, UniProt P50750)
T7 construct: purchased Eurofins/DiscoverX KINOMEscan scanMAX
Method: as §1

CDKL2 = molecular target: T8, CDKL2 (Homo sapiens, UniProt Q92772)
T8 construct: purchased Eurofins/DiscoverX KINOMEscan scanMAX
Method: as §1

DAPK3 = molecular target: T9, DAPK3 (Homo sapiens, UniProt O43293)
T9 construct: purchased Eurofins/DiscoverX KINOMEscan scanMAX
Method: as §1

DDR2 = molecular target: T10, DDR2 (Homo sapiens, UniProt Q16832)
T10 construct: purchased Eurofins/DiscoverX KINOMEscan scanMAX
Method: as §1

DRAK2 = molecular target: T11, DRAK2 (Homo sapiens, UniProt O94768)
T11 construct: purchased Eurofins/DiscoverX KINOMEscan scanMAX
Method: as §1

EPHA2 = molecular target: T12, EPHA2 (Homo sapiens, UniProt P29317)
T12 construct: purchased Eurofins/DiscoverX KINOMEscan scanMAX
Method: as §1

ERBB3 = molecular target: T13, ERBB3 (Homo sapiens, UniProt P21860)
T13 construct: purchased Eurofins/DiscoverX KINOMEscan scanMAX
Method: as §1

ERK5 = molecular target: T14, ERK5 (Homo sapiens, UniProt Q13164)
T14 construct: purchased Eurofins/DiscoverX KINOMEscan scanMAX
Method: as §1

FES = molecular target: T15, FES (Homo sapiens, UniProt P07332)
T15 construct: purchased Eurofins/DiscoverX KINOMEscan scanMAX
Method: as §1

FLT3(D835H) = molecular target: T16, FLT3(D835H) (Homo sapiens, UniProt P36888, D835H)
T16 construct: purchased Eurofins/DiscoverX KINOMEscan scanMAX
Method: as §1

FLT4 = molecular target: T17, FLT4 (Homo sapiens, UniProt P35916)
T17 construct: purchased Eurofins/DiscoverX KINOMEscan scanMAX
Method: as §1

FRK = molecular target: T18, FRK (Homo sapiens, UniProt P42685)
T18 construct: purchased Eurofins/DiscoverX KINOMEscan scanMAX
Method: as §1

GRK4 = molecular target: T19, GRK4 (Homo sapiens, UniProt P32298)
T19 construct: purchased Eurofins/DiscoverX KINOMEscan scanMAX
Method: as §1

GRK7 = molecular target: T20, GRK7 (Homo sapiens, UniProt Q8WTQ7)
T20 construct: purchased Eurofins/DiscoverX KINOMEscan scanMAX
Method: as §1

HIPK2 = molecular target: T21, HIPK2 (Homo sapiens, UniProt Q9H2X6)
T21 construct: purchased Eurofins/DiscoverX KINOMEscan scanMAX
Method: as §1

ICK = molecular target: T22, ICK (Homo sapiens, UniProt Q9UPZ9)
T22 construct: purchased Eurofins/DiscoverX KINOMEscan scanMAX
Method: as §1

[1] = molecular target: T23, JAK3(JH1domain-catalytic) (Homo sapiens, UniProt P52333)
T23 construct: JAK3(JH1domain-catalytic); purchased Eurofins/DiscoverX KINOMEscan scanMAX
Method: as §1

LATS1 = molecular target: T24, LATS1 (Homo sapiens, UniProt O95835)
T24 construct: purchased Eurofins/DiscoverX KINOMEscan scanMAX
Method: as §1

MKNK1 = molecular target: T25, MKNK1 (Homo sapiens, UniProt Q9BUB5)
T25 construct: purchased Eurofins/DiscoverX KINOMEscan scanMAX
Method: as §1

MYLK = molecular target: T26, MYLK (Homo sapiens, UniProt Q15746)
T26 construct: purchased Eurofins/DiscoverX KINOMEscan scanMAX
Method: as §1

NEK9 = molecular target: T27, NEK9 (Homo sapiens, UniProt Q8TD19)
T27 construct: purchased Eurofins/DiscoverX KINOMEscan scanMAX
Method: as §1

PAK6 = molecular target: T28, PAK6 (Homo sapiens, UniProt Q9NQU5)
T28 construct: purchased Eurofins/DiscoverX KINOMEscan scanMAX
Method: as §1

PHKG2 = molecular target: T29, PHKG2 (Homo sapiens, UniProt P15735)
T29 construct: purchased Eurofins/DiscoverX KINOMEscan scanMAX
Method: as §1

PIK3CA(C420R) = molecular target: T30, PIK3CA(C420R) (Homo sapiens, UniProt P42336, C420R)
T30 construct: purchased Eurofins/DiscoverX KINOMEscan scanMAX
Method: as §1

PIK3CA(H1047L) = molecular target: T31, PIK3CA(H1047L) (Homo sapiens, UniProt P42336, H1047L)
T31 construct: purchased Eurofins/DiscoverX KINOMEscan scanMAX
Method: as §1

PIM2 = molecular target: T32, PIM2 (Homo sapiens, UniProt Q9P1W9)
T32 construct: purchased Eurofins/DiscoverX KINOMEscan scanMAX
Method: as §1

PIP5K1C = molecular target: T33, PIP5K1C (Homo sapiens, UniProt O60331)
T33 construct: purchased Eurofins/DiscoverX KINOMEscan scanMAX
Method: as §1

PRKD1 = molecular target: T34, PRKD1 (Homo sapiens, UniProt Q15139)
T34 construct: purchased Eurofins/DiscoverX KINOMEscan scanMAX
Method: as §1

PRKX = molecular target: T35, PRKX (Homo sapiens, UniProt P51817)
T35 construct: purchased Eurofins/DiscoverX KINOMEscan scanMAX
Method: as §1

SNARK = molecular target: T36, SNARK (Homo sapiens, UniProt Q9H093)
T36 construct: purchased Eurofins/DiscoverX KINOMEscan scanMAX
Method: as §1

TAOK1 = molecular target: T37, TAOK1 (Homo sapiens, UniProt Q7L7X3)
T37 construct: purchased Eurofins/DiscoverX KINOMEscan scanMAX
Method: as §1

TGFBR1 = molecular target: T38, TGFBR1 (Homo sapiens, UniProt P36897)
T38 construct: purchased Eurofins/DiscoverX KINOMEscan scanMAX
Method: as §1

TIE1 = molecular target: T39, TIE1 (Homo sapiens, UniProt P35590)
T39 construct: purchased Eurofins/DiscoverX KINOMEscan scanMAX
Method: as §1

TSSK1B = molecular target: T40, TSSK1B (Homo sapiens, UniProt Q9BXA7)
T40 construct: DNA tag (qPCR barcode); purchased Eurofins/DiscoverX KINOMEscan scanMAX
Method: as §1

YSK4 = molecular target: T41, YSK4 (Homo sapiens, UniProt Q56UN5)
T41 construct: purchased Eurofins/DiscoverX (KINOMEscan scanMAX service)
Method: as §1

ZAK = molecular target: T42, ZAK (Homo sapiens, UniProt Q9NYL2)
T42 construct: purchased Eurofins/DiscoverX (KINOMEscan scanMAX service)
Method: as §1

T28 sequence (Q9NQU5 whole entry): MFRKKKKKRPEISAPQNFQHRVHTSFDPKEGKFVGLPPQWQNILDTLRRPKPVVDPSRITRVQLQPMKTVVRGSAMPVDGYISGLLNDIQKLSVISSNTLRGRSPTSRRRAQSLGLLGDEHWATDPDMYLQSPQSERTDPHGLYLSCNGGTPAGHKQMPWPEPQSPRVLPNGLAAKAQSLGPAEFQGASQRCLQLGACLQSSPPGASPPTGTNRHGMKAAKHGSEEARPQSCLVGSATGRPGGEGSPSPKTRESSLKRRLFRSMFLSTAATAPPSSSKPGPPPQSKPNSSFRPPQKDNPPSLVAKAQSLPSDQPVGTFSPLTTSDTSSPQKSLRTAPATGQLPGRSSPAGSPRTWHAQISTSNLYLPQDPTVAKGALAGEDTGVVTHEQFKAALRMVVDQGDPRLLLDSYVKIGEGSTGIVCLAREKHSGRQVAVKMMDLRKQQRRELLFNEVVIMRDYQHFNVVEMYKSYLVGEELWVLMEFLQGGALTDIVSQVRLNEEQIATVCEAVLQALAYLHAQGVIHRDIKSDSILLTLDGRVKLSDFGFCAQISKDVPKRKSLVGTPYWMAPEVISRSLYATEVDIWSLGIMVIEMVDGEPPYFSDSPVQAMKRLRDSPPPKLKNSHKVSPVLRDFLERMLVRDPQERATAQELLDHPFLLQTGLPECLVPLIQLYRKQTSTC
T29 sequence (P15735 whole entry): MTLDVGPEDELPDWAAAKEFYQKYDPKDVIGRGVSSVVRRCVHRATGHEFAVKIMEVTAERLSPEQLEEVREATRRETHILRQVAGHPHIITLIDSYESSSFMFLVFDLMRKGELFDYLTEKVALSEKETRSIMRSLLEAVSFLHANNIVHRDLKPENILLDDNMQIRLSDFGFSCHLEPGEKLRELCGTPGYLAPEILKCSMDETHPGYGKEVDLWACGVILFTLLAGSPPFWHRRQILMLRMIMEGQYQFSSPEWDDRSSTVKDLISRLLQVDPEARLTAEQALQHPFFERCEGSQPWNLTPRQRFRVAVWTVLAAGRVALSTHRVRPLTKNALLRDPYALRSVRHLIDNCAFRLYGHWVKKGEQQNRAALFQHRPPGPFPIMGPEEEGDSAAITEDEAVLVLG
T37 sequence (Q7L7X3 whole entry): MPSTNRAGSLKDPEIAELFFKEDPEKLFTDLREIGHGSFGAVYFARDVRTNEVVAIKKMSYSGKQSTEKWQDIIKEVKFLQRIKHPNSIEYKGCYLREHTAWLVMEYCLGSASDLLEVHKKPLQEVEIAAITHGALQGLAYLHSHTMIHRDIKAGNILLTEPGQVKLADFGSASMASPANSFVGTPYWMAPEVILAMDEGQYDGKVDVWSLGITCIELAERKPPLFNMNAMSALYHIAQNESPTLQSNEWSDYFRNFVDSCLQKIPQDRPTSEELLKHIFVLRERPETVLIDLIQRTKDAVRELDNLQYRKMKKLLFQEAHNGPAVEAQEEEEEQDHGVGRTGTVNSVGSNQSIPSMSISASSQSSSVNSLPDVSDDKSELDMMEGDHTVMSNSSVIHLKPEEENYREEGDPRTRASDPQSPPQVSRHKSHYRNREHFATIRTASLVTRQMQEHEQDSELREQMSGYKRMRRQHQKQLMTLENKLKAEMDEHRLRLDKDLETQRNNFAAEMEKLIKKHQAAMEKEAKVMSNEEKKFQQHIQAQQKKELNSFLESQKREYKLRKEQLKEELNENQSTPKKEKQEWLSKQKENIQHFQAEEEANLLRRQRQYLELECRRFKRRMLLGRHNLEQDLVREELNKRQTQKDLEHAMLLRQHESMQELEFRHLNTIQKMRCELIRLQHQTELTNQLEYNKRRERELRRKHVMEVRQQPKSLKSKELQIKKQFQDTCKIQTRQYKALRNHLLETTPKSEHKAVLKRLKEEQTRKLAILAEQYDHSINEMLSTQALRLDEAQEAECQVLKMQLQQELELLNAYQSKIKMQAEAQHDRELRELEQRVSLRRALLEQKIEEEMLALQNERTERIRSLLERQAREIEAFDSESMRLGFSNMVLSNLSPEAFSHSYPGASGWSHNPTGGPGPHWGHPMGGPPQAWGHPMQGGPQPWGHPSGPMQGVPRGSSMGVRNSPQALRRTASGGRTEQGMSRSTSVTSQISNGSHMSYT
T6 sequence (P11802 whole entry): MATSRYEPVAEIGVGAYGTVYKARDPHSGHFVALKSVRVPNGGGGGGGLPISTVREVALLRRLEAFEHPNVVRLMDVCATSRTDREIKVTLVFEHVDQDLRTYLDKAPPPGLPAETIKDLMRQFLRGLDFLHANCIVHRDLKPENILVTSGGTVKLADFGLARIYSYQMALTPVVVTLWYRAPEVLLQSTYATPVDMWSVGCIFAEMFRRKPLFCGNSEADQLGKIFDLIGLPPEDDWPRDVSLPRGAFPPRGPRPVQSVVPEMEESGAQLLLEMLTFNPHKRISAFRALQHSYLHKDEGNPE
T6 sequence (P24385 whole entry partner): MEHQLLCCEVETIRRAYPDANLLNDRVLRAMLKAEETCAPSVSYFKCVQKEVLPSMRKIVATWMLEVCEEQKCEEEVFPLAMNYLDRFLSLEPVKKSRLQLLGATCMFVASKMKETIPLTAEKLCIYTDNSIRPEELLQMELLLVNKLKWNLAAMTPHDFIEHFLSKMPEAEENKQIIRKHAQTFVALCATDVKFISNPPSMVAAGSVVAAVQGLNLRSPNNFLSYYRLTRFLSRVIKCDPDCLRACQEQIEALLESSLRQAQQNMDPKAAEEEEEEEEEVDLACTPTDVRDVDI
T10 sequence (Q16832 22-855): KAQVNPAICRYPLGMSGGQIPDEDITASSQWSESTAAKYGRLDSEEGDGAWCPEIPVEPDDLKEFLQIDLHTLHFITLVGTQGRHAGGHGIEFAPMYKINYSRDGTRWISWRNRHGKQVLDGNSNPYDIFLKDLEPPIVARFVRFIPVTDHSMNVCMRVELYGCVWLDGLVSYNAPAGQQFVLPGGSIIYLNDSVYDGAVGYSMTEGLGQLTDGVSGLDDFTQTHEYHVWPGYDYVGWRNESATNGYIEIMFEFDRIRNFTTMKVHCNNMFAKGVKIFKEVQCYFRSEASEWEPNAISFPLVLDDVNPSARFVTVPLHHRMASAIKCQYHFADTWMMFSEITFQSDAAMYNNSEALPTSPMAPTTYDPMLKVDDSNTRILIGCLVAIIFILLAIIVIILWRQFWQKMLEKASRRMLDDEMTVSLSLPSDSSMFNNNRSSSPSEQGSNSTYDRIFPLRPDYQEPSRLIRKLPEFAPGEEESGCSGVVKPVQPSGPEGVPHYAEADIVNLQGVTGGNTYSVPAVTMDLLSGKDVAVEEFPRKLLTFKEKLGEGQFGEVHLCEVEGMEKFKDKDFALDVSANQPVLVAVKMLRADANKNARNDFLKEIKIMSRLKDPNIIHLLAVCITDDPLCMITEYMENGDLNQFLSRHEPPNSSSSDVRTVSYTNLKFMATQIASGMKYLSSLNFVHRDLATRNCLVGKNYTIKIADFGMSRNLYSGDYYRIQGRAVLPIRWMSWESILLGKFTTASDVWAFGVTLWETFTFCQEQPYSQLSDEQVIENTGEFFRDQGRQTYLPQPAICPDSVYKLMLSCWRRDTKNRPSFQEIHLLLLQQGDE
T19 sequence (P32298 whole entry): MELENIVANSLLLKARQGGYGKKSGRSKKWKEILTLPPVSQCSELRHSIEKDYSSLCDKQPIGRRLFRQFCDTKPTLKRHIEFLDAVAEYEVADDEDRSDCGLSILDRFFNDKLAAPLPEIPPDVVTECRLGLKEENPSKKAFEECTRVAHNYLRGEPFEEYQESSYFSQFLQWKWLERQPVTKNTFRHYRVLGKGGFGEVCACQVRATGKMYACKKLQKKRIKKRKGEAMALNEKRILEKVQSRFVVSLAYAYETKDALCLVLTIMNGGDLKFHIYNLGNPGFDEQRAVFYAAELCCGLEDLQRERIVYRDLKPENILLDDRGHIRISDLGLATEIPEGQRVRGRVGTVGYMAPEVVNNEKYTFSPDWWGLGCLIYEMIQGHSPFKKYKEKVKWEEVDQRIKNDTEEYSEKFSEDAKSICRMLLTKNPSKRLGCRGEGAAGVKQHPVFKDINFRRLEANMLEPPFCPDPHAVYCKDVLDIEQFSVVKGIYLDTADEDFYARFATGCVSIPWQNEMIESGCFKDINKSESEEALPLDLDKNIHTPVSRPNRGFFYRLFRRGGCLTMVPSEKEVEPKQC
T15 sequence (P07332 whole entry): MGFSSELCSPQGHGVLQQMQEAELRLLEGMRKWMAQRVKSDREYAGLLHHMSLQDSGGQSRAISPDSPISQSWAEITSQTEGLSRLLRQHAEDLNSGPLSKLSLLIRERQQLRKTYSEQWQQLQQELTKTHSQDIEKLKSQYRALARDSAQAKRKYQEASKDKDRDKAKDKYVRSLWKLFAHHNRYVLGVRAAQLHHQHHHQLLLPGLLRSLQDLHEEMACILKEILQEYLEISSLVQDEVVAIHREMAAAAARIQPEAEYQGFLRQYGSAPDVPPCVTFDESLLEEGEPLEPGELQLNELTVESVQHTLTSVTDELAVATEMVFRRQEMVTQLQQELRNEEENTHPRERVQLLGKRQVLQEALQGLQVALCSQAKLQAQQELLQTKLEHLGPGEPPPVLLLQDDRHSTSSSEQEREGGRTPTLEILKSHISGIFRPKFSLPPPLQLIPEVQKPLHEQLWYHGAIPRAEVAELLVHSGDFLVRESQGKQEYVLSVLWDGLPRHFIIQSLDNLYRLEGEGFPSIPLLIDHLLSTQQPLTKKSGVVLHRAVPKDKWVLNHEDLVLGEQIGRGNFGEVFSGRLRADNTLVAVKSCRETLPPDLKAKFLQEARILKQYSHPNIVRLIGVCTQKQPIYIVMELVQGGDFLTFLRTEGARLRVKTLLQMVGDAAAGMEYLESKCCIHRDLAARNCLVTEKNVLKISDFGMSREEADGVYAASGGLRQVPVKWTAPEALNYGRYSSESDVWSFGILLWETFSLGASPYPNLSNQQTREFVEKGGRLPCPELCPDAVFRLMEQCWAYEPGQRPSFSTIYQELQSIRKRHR

CN1CCN(C2CCC(n3cc(-c4ccc(Oc5ccccc5)cc4)c4c(N)ncnc43)CC2)CC1 (stereo not drawn) [A-419259]
% Control (ACVRL1): 100%
% Control (ASK2): 62%
% Control (BRAF(V600E)): 45%
% Control (CAMK1G): 100%
% Control (CDC2L1): 61%
% Control (CDK4-cyclinD1): 27%
% Control (CDK9): 65%
% Control (CDKL2): 70%
% Control (DAPK3): 100%
% Control (DDR2): 59%
% Control (DRAK2): 93%
% Control (EPHA2): 100%
% Control (ERBB3): 0.2%
% Control (ERK5): 58%
% Control (FES): 100%
% Control (FLT3(D835H)): 12%
% Control (FLT4): 19%
% Control (FRK): 5.3%
% Control (GRK4): 100%
% Control (GRK7): 62%
% Control (HIPK2): 100%
% Control (ICK): 97%
% Control [1]: 65%
% Control (LATS1): 30%
% Control (MKNK1): 63%
% Control (MYLK): 94%
% Control (NEK9): 90%
% Control (PAK6): 84%
% Control (PHKG2): 100%
% Control (PIK3CA(C420R)): 100%
% Control (PIK3CA(H1047L)): 98%
% Control (PIM2): 100%
% Control (PIP5K1C): 89%
% Control (PRKD1): 63%
% Control (PRKX): 100%
% Control (SNARK): 26%
% Control (TAOK1): 100%
% Control (TGFBR1): 60%
% Control (TIE1): 25%
% Control (TSSK1B): 100%
% Control (YSK4): 58%
% Control (ZAK): 13%
